The values that follow come from patent US20250388605A1, “HETEROBIFUNCTIONAL COMPOUNDS AND METHODS OF TREATING DISEASE” (Halda Therapeutics OpCo, Inc., priority 2022, published 2025).

For assay [1], the system named is T-Rex 293 cell line SC3 cells having increased expression of androgen receptor protein due to exposure to doxycycline. Description: Cellular growth inhibition, T-Rex 293 SC3 cells with doxycycline (increased androgen receptor expression), CellTiter-Glo. It counts as cell-based. To be noted: T-Rex 293 SC3 cells with 10 ng/mL doxycycline (increased androgen receptor expression), 72 hours, CellTiter-Glo 2.0. In a few lines: (§1)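 Doxycycline (10 ng/mL) was either included or omitted to toggle wild-type androgen receptor expression in SC3 cells, a T-Rex 293 clone, grown in stripped-serum, phenol red-free medium. After 72 hours with compound, viable cells were quantified by CellTiter-Glo 2.0.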

A further assay has as its target T1, BRD4-BD2 (Homo sapiens, UniProt O60885).
T1 construct: made in house; host or cells: T7 phage grown in an E. coli host derived from the BL21 strain
Description: Binding affinity to BRD4-BD2 (bromoKdELECT assay). The conditions noted are these: 11-point 3-fold dilution series. As for the experimental part: Compounds were tested using a bromoKdELECT assay. T7 phage strains displaying bromodomains were grown in parallel in 24-well blocks in an E. coli host derived from the BL21 strain. E. coli were grown to log-phase and infected with T7 phage from a frozen stock (multiplicity of infection=0.4) and incubated with shaking at 32° C. until lysis (90-150 minutes). The lysates were centrifuged (5,000×g) and filtered ([…]) to remove cell debris. Streptavidin-coated magnetic beads were treated with biotinylated small molecule or acetylated peptide ligands for 30 minutes at room temperature to generate affinity resins for bromodomain assays. The liganded beads were blocked with excess biotin and washed with blocking buffer (SeaBlock (Pierce), 1% BSA, 0.05% Tween 20, 1 mM DTT) to remove unbound ligand and to reduce nonspecific phage binding. Binding reactions were assembled by combining bromodomains, liganded affinity beads, and test compounds in 1× binding buffer (17% SeaBlock, 0.33×PBS, 0.04% Tween 20, 0.02% BSA, 0.004% Sodium azide, 7.4 mM DTT). Test compounds were prepared as 1000× stocks in 100% DMSO. Kds were determined using an 11-point 3-fold compound dilution series with one DMSO control point. All compounds for Kd measurements are distributed by acoustic transfer (non-contact dispensing) in 100% DMSO. The compounds were then diluted directly into the assays such that the final concentration of DMSO was 0.09%. All reactions performed in polypropylene 384-well plates. Each was a final volume of 0.02 ml. The assay plates were incubated at room temperature with shaking for 1 hour and the affinity beads were washed with wash buffer (1×PBS, 0.05% Tween 20). The beads were then resuspended in elution buffer (1×PBS, 0.05% Tween 20, 2 μM non-biotinylated affinity ligand) and incubated at room temperature with shaking for 30 minutes. The bromodomain concentration in the eluates was measured by qPCR.

Assay [2] has as its system T-Rex 293 cell line SC3 cells lacking increased expression of androgen receptor protein. Description: Cellular growth inhibition, T-Rex 293 SC3 cells without doxycycline (no increased androgen receptor expression), CellTiter-Glo. The assay is classed as cell-based. The conditions noted are these: T-Rex 293 SC3 cells not exposed to doxycycline (no increased androgen receptor expression), 72 hours. The method in brief: as §1
(In ATP-based viability assays light output follows the ATP content of the culture.)

For `CCS(=O)(=O)Nc1ccc(Oc2cccc(OCCN(C)c3ncc(C(=O)N[C@H]4C(C)(C)[C@H](Oc5ccc(C#N)c(Cl)c5)C4(C)C)cn3)c2)c(-c2cn(C)c(=O)c3[nH]ccc23)c1` [Compound I-1, N-((1r, 3r)-3-(3-chloro-4-cyanophenoxy)-2,2,4,4-tetramethylcyclobutyl)-2-((2-(3-(4-(ethylsulfonamido)-2-(6-methyl-7-oxo-6,7-dihydro-1H-pyrrolo[2,3-c]pyridin-4-yl)phenoxy)phenoxy)ethyl)(methyl)amino)pyrimidine-5-carboxamide], the GI50 (as a rule, the concentration that inhibits growth by half) is under 0.5 µM in assay [1] and 0.5 to 1.5 µM in assay [2]. At BRD4-BD2, the Kd – broadly, the free concentration of one partner at which half of the binding sites on the other are occupied at equilibrium, for simple one-to-one binding – is under 0.05 µM.

Regarding `CCS(=O)(=O)Nc1ccc(Oc2cccc(OCCOCCOCCOCCOCCN(C)c3ncc(C(=O)N[C@H]4C(C)(C)[C@H](Oc5ccc(C#N)c(Cl)c5)C4(C)C)cn3)c2)c(-c2cn(C)c(=O)c3[nH]ccc23)c1` [Compound I-3], the results for the GI50 in assay [1] and in assay [2] were under 0.5 µM and over 3 µM, respectively. The Kd at BRD4-BD2 was under 0.05 µM.

For the compound `CCS(=O)(=O)Nc1ccc(Oc2cccc(OCCOC3CCN(c4ncc(C(=O)N[C@H]5C(C)(C)[C@H](Oc6ccc(C#N)c(Cl)c6)C5(C)C)cn4)CC3)c2)c(-c2cn(C)c(=O)c3[nH]ccc23)c1` [Compound I-6], the GI50 in assay [1] and in assay [2] was under 0.5 µM throughout. Further, the Kd on BRD4-BD2 was in the range of 0.05 to 0.5 µM.

As to `CCS(=O)(=O)Nc1ccc(Oc2cccc(OCCOCCOCCOC3CCN(c4ncc(C(=O)N[C@H]5C(C)(C)[C@H](Oc6ccc(C#N)c(Cl)c6)C5(C)C)cn4)CC3)c2)c(-c2cn(C)c(=O)c3[nH]ccc23)c1` [Compound I-7], the GI50 in assay [1] and in assay [2] was under 0.5 µM each time. At BRD4-BD2, this compound yielded a Kd of under 0.05 µM.

As to `CCS(=O)(=O)Nc1ccc(Oc2cccc(OCCOCCOCCOCCOCCOC3CCN(c4ncc(C(=O)N[C@H]5C(C)(C)[C@H](Oc6ccc(C#N)c(Cl)c6)C5(C)C)cn4)CC3)c2)c(-c2cn(C)c(=O)c3[nH]ccc23)c1` [Compound I-8], the GI50 in assay [1] and in assay [2] was under 0.5 µM in each case. The same compound displayed a Kd on BRD4-BD2 of under 0.05 µM.

Consider `CCS(=O)(=O)Nc1ccc(Oc2cccc(OCCOC3CCN(c4ccc(C(=O)N[C@H]5C(C)(C)[C@H](Oc6ccc(C#N)c(Cl)c6)C5(C)C)nn4)CC3)c2)c(-c2cn(C)c(=O)c3[nH]ccc23)c1` [Compound I-11], for which the GI50 in assay [1] and in assay [2] was under 0.5 µM in each case. For the same compound, on BRD4-BD2, the Kd is under 0.05 µM.

Consider `CCS(=O)(=O)Nc1ccc(Oc2cccc(OCCOCCOC3CCN(c4ncc(C(=O)N[C@H]5C(C)(C)[C@H](Oc6ccc(C#N)c(Cl)c6)C5(C)C)cn4)CC3)c2)c(-c2cn(C)c(=O)c3[nH]ccc23)c1` [Compound I-13], for which the GI50 in assay [1] and in assay [2] was under 0.5 µM throughout. In addition, the Kd at BRD4-BD2 was under 0.05 µM.

Take `CCS(=O)(=O)Nc1ccc(Oc2cccc(COC3CCN(c4ncc(C(=O)N[C@H]5C(C)(C)[C@H](Oc6ccc(C#N)c(Cl)c6)C5(C)C)cn4)CC3)c2)c(-c2cn(C)c(=O)c3[nH]ccc23)c1` [Compound I-18, N-((1r, 3r)-3-(3-chloro-4-cyanophenoxy)-2,2,4,4-tetramethylcyclobutyl)-2-(4-((3-(4-(ethylsulfonamido)-2-(6-methyl-7-oxo-6,7-dihydro-1H-pyrrolo[2,3-c]pyridin-4-yl)phenoxy)benzyl)oxy)piperidin-1-yl)pyrimidine-5-carboxamide]: the 50% growth inhibitory concentration (GI50) in assay [1] and in assay [2] was under 0.5 µM in each case. Also, the Kd at BRD4-BD2 is under 0.05 µM.

As for `CCS(=O)(=O)Nc1ccc(Oc2cccc(N(C)C3CN(CC4CCN(c5ncc(C(=O)NC6C(C)(C)C(Oc7ccc(C#N)c(Cl)c7)C6(C)C)cn5)CC4)C3)c2)c(-c2cn(C)c(=O)c3[nH]ccc23)c1` (stereo not shown) [Compound I-39], the GI50 in assay [1] and in assay [2] was under 0.5 µM throughout. The Kd at BRD4-BD2 is under 0.05 µM.

As for `CCS(=O)(=O)Nc1ccc(Oc2cccc(OCCOC3CCN(c4ncc(C(=O)N[C@H]5C(C)(C)[C@H](Oc6ccc(C#N)c(Cl)c6)C5(C)C)cn4)CC3)n2)c(-c2cn(C)c(=O)c3[nH]ccc23)c1` [Compound I-47, N-((1r, 3r)-3-(3-chloro-4-cyanophenoxy)-2,2,4,4-tetra-methylcyclobutyl)-2-(4-(2-((6-(4-(ethylsulfonamido)-2-(6-methyl-7-oxo-6,7-dihydro-1H-pyrrolo[2,3-c]pyridin-4-yl)phenoxy)pyridin-2-yl)oxy)ethoxy)piperidin-1-yl)pyrimidine-5-carboxamide], the 50% growth inhibitory concentration (GI50) in assay [1] and in assay [2] was under 0.5 µM throughout. The Kd on BRD4-BD2 was under 0.05 µM.

Take `CCS(=O)(=O)Cc1ccc(Oc2cccc(OCCOC3CCN(c4ncc(C(=O)N[C@H]5C(C)(C)[C@H](Oc6ccc(C#N)c(Cl)c6)C5(C)C)cn4)CC3)c2)c(-c2cn(C)c(=O)c3[nH]ccc23)c1` [Compound I-54, N-((1r, 3r)-3-(3-chloro-4-cyanophenoxy)-2,2,4,4-tetramethylcyclobutyl)-2-(4-(2-(3-(4-((ethylsulfonyl)methyl)-2-(6-methyl-7-oxo-6,7-dihydro-1H-pyrrolo[2,3-c]pyridin-4-yl)phenoxy)phenoxy)ethoxy)piperidin-1-yl)pyrimidine-5-carboxamide]: the GI50 in assay [1] and in assay [2] was under 0.5 µM each time. On BRD4-BD2, this compound registered a Kd of 0.05 to 0.5 µM.

For the compound `Cn1cc(-c2cc(C(C)(C)O)ccc2Oc2cccc(OCCOC3CCN(c4ncc(C(=O)N[C@H]5C(C)(C)[C@H](Oc6ccc(C#N)c(Cl)c6)C5(C)C)cn4)CC3)c2)c2cc[nH]c2c1=O` [Compound I-56, N-((1r, 3r)-3-(3-chloro-4-cyanophenoxy)-2,2,4,4-tetramethylcyclobutyl)-2-(4-(2-(3-(4-(2-hydroxypropan-2-yl)-2-(6-methyl-7-oxo-6,7-dihydro-1H-pyrrolo[2,3-c]pyridin-4-yl)phenoxy)phenoxy)ethoxy)piperidin-1-yl)pyrimidine-5-carboxamide], the GI50 in assay [1] and in assay [2] was under 0.5 µM in each case. On BRD4-BD2, this compound had a Kd of 0.05 to 0.5 µM.

For the compound `Cn1cc(-c2cc(C(C)(C)O)ccc2Oc2ccc(N3CC(CC4CCN(c5ncc(C(=O)N[C@H]6C(C)(C)[C@H](Oc7ccc(C#N)c(Cl)c7)C6(C)C)cn5)CC4)C3)cc2)c2cc[nH]c2c1=O` [Compound I-232], the results for the GI50 in assay [1] and in assay [2] were under 0.5 µM and over 3 µM, respectively.

For the compound `CN(C1CN(c2ccc(Oc3ccc(C(C)(C)O)cc3-c3cn(C)c(=O)c4[nH]ccc34)cc2)C1)C1CN(c2ncc(C(=O)N[C@H]3C(C)(C)[C@H](Oc4ccc(C#N)c(Cl)c4)C3(C)C)cn2)C1` [Compound I-238], the GI50 in assay [1] was under 0.5 µM; in assay [2] it was 0.5 to 1.5 µM.

Consider `CN(CC1CCN(c2ncc(C(=O)N[C@H]3C(C)(C)[C@H](Oc4ccc(C#N)c(Cl)c4)C3(C)C)cn2)CC1)C1(c2ccc(Oc3ccc(C(C)(C)O)cc3-c3cn(C)c(=O)c4[nH]ccc34)cc2)COC1` [Compound I-255], for which the 50% growth inhibitory concentration (GI50) in assay [1] was under 0.5 µM; in assay [2], 0.5 to 1.5 µM.

For `Cn1cc(-c2cc(C(C)(C)O)ccc2Oc2ccc(CCCC3CC4(C3)CN(c3ncc(C(=O)N[C@H]5C(C)(C)[C@H](Oc6ccc(C#N)c(Cl)c6)C5(C)C)cn3)C4)cc2)c2cc[nH]c2c1=O` [Compound I-268], the figures for the concentration for 50% growth inhibition (GI50) in assay [1] and in assay [2] were under 0.5 µM and 0.5 to 1.5 µM, respectively.

For the compound `Cn1cc(-c2cc(C(C)(C)O)ccc2Oc2ccc(N3CC(CC4CN(c5ncc(C(=O)N[C@H]6C(C)(C)[C@H](Oc7ccc(C#N)c(Cl)c7)C6(C)C)cn5)C4)C3)cc2)c2cc[nH]c2c1=O` [Compound I-280], the GI50 is under 0.5 µM in assay [1] and 1.5 to 3 µM in assay [2].
